Reference: patent US7642085B2, “Protein arrays” (priority 2002, dated 2010)
Values after ≈ are worked out from the molar mass of the structure shown. Read-outs that look alike come from different tables or passages of the source.

What was measured:
[1] = system: E. coli cells expressing mutant TyrRS and mutRNACUA^Tyr; assay: in vivo CAT assay: chloramphenicol resistance of cells expressing selected mutant TyrRS and mutRNACUA^Tyr (Asp112TAG CAT gene); assay type: cell-based, Escherichia coli; settings: for IC50: Escherichia coli, read-out: IC50 value of chloramphenicol, eleven mutant TyrRS
Description: In the positive selection, plasmid pYC-J17 was used to express the mutRNACUA^Tyr gene and the chloramphenicol acetyl transferase (CAT) gene with a TAG stop codon at Asp112 (4). Supercoiled DNA encoding the TyrRS library was transformed into E. coli DH10B competent cells containing pYC-J17. Cells were then plated on minimal media plates containing 1% glycerol and 0.3 mM leucine (GMML) with 17 μg/mL tetracycline, 25 μg/mL kanamycin, 60 μg/mL of chloramphenicol, and 1 mM p-acetyl-L-phenylalanine. After incubation at 37° C. for 40 hours, colonies were pooled, and plasmids were isolated. Plasmids encoding mutant synthetases (pBK plasmids) were separated from pYC-J17 using gel electrophoresis and transformed into E. coli DH10B competent cells containing pLWJ17B3 for negative selection. […] Transformed cells were grown on LB (Luria-Bertani) plates containing 0.2% arabinose, 50 μg/ml kanamycin, and 35 μg/ml chloramphenicol. After 8 hours, cells were removed from the plate, and pBK plasmids were purified for further rounds of selection. In the second and third round of positive selection, the concentration of chloramphenicol was increased to 80 and 100 μg/mL, respectively. […] The polypeptide sequences of these mutant TyrRS converged on 3 independent clones LW1, LW5 and LW6, although the codon usage of each mutant TyrRS differs.
The Methanococcus jannaschii tyrosyl-tRNA synthetase (TyrRS) and a mutant tyrosine amber suppressor tRNA (mutRNACUA^Tyr) were used as the starting point for the generation of the orthogonal tRNA-synthetase pairs. […] To change the amino acid specificity of the TyrRS so that it charges p-acetyl-L-phenylalanine and not any of the common 20 amino acids, a library of M. jannaschii TyrRS mutants was generated and screened. The crystal structure of the homologous Bacillus stearothertnophilus TyrRS (31) was used to identify those residues that are within 6.5 Å of the para position of the aryl ring of bound tyrosine. Five corresponding residues (Tyr32, Glu107, Asp158, Ile159 and Leu162) in the active site of M. jannaschii TyrRS were randomly mutated by polymerase chain reaction (PCR) to generate a library 1.6×10^9 in size (4). This TyrRS mutant library was first passed through a positive selection in the presence of 1 mM p-acetyl-L-phenylalanine which is based on the suppression of an amber stop codon at nonessential residue (Asp 112) in chloramphenicol acetyl transferase (CAT) gene encoded on plasmid pYC-J17 (4) in E. coli. Cells surviving in chloramphenicol must encode a mutant synthetase that aminoacylates the mutRNACUA^Tyr with either a common amino acid(s) or p-acetyl-L-phenylalanine. […]

[2] = system: cells harboring mutant TyrRS plasmids; assay: chloramphenicol resistance of cells harboring mutant TyrRS plasmids selected for m-acetyl phenylalanine; assay type: cell-based
Source text: Preparation of Mutant TyrRS Library Plasmids. A library of plasmids encoding mutant M. jannaschii TryRSs directed at meta-substituted tyrosine derivatives was constructed, generally following the methods described in Example 1 of WO 2002/085923. Briefly, six residues (Tyr^32, Ala^67, His^70, Gln^155, Asp^158, Ala^167) in the active site of M. jannaschii TyrRS that are within 6.9 Å of the meta-position of the aryl ring of bound tyrosine in the crystal structure of Bacillus stearothermophilus TyrRS were mutated to all 20 amino acids at DNA level using the NNK codon scheme as described in Example 1 above. The constructed plasmid library pBK-lib contained around 1×10^9 independent clones.
Evolution of Orthogonal tRNA-synthetase Pairs for Incorporation of m-acetyl Phenylalanine. After 3 rounds of positive selection and 2 rounds of negative selection, five candidate clones (SEQ ID NO: 17-21 of WO 2002/085923) emerged whose survival in chloramphenicol was dependent on the addition of the unnatural amino acid. In the absence of m-acetyl phenylalanine, the IC50 of chloramphenicol resistance for cells harboring the one of the […] mutant TyrRS plasmids is 20 μg/ml. In the presence of m-acetyl phenylalanine, the IC50 of resistance to chloramphenicol for the same cells is 100 μg/ml. […]

[3] = system: mutant Z domain protein expressed by mutRNACUA^Tyr/LW1RS; assay: fidelity of unnatural amino acid incorporation into Z domain (Lys7TAG), by FT-ICR MS; parameters: species or system E. coli; settings: from a signal-to-noise ratio of more than 1500 in the intact protein mass spectrum
Source text: Plasmid pLEIZ was used to express the Z-domain gene with an amber codon at the 7th position and a COOH-terminal His6 tag under the control of a bacteriophage T5 promoter and t0 terminator, and the mutRNACUA^Tyr gene under the control of the lpp promoter and rrnC terminator. The mutant synthetase gene isolated from clone LW1 (LW1RS) was encoded in plasmid pBK-LW1RS under the control of the constitutive E. coli GlnRS promoter and terminator. E. coli DH10B cells cotransformed with pLEIZ and pBK-LW1RS were grown in minimal media containing 1% glycerol and 0.3 mM leucine (GMML media) with 25 μg/mL kanamycin, 34 μg/mL of chloramphenicol, and 1.0 mM p-acetyl-(±)-phenylalanine. When cells reach an OD600 of 0.5, isopropyl-β-D-thiogalactopyranoside (IPTG) (1 mM) was added to induce polypeptide expression. […] The yield of polypeptide was measured by Bradford assay (BCA kit, Biorad, Hercules, Calif.). […]
To test the ability of the evolved synthetase and the mutRNACUA^Tyr to selectively incorporate p-acetyl-L-phenylalanine into polypeptides, an amber stop codon was substituted at a permissive site (Lys7) in the gene for the Z domain of staphylococcal protein A (32) with a COOH-terminal His6 tag. Z domain has a molecular weight of about 7.9 kD, so its mass can be measured with very high accuracy using ion cyclotron resonance mass spectrometry. […]

[4] = system: E. coli DH10B cells; assay: growth rate of cells grown in the presence of the unnatural amino acid; settings: 1 mM; cells transformed with mutRNACUA^Tyr, LW1RS and Z domain gene (Lys7TAG)
Description: E. coli DH10B cells cotransformed with pLEIZ and pBK-LW1RS were grown in minimal media containing 1% glycerol and 0.3 mM leucine (GMML media) with 25 μg/mL kanamycin, 34 μg/mL of chloramphenicol, and 1.0 mM p-acetyl-(±)-phenylalanine. When cells reach an OD600 of 0.5, isopropyl-β-D-thiogalactopyranoside (IPTG) (1 mM) was added to induce polypeptide expression.
To test the ability of the evolved synthetase and the mutRNACUA^Tyr to selectively incorporate p-acetyl-L-phenylalanine into polypeptides, an amber stop codon was substituted at a permissive site (Lys7) in the gene for the Z domain of staphylococcal protein A (32) with a COOH-terminal His6 tag. […] Cells transformed with the mutRNACUA^Tyr, LW1RS and Z domain gene (Lys7TAG) were grown in the presence of 1 mM p-acetyl-(±)-phenylalanine.

`O=C(N[C@H](CO)[C@H](O)c1ccc([N+](=O)[O-])cc1)C(Cl)Cl` [chloramphenicol] was tested, and the IC50 ([1]; in the absence of p-acetyl-L-phenylalanine) was 9 µg/mL (≈ 27.9 µM), the IC50 ([1]; in the presence of p-acetyl-L-phenylalanine) was 120 µg/mL and the “chloramphenicol concentration on which cells survived” value ([1]; GMML plates, in the absence of p-acetyl-L-phenylalanine) was 9 µg/mL. For the same molecule, the “chloramphenicol concentration in which cells survived” value ([1]; GMML plates, in the presence of p-acetyl-L-phenylalanine) was 120 µg/mL, the IC50 ([2]; in the presence of m-acetyl phenylalanine, read-out: IC50 of resistance to chloramphenicol) was 100 µg/mL and the IC50 ([2]; read-out: IC50 of chloramphenicol resistance) was 20 µg/mL (≈ 61.9 µM).
For `CC(=O)c1ccc(C[C@H](N)C(=O)O)cc1` [p-acetyl-L-phenylalanine], the “fidelity for the incorporation” value [3] was greater than 99.8%.
With `CC(=O)c1ccc(CC(N)C(=O)O)cc1` (racemic) [p-acetyl-(±)-phenylalanine] the “effect on growth rate of cells” value [4] was “did not affect the growth rate of cells”.
